“Also recorded” adds a separate entry of the source.
What was measured:
[1] = test system: LNCaP cell culture; type: cell-based
Description: In one non-limiting example, Peptide A-8R [SEQ ID NO: 1] can be truncated to a smaller peptide that retains the same type of biological activity profile. In certain embodiments, truncating Peptide A-8R [SEQ ID NO: 1] results in greater potency upon conversion of some of the pharmacophore functionalities to peptidomimetic groups that can, in turn, enhance key interactions by lowering the net binding energy. In one experiment, Peptide A-8R [SEQ ID NO: 1] was divided into two parts, using the central proline residue as the division point. […] A minimum number of amino acids desired for cytotoxicity was then identified. […] The following Peptide A truncated and derivative probes were synthesized and evaluated for their effect on cytotoxicity after 3- and 6-day exposures:
The following table lists cell culture data for truncated Peptide A peptides. The amino acid sequences and IC50 values in μM concentrations depict cytotoxicity after 3- and 6-day exposures (“NotA” means not active). “8R” [SEQ ID NO: 6] signifies that 8 arginines are present on the carboxy terminus to mediate membrane translocation. The data has shown that the 8R terminus [SEQ ID NO: 6] can be either as the free carboxy (—OH) or amide (—NH2) with no alteration of permeation or observed activity.
The table below lists LNCaP cell culture data for various Peptide A derivatives, displaying the observed IC50 values in μM concentrations after 3- and 6-day exposures.

[2] = test system: LNCaP cells; type: cell-based; set-up: cell death: dose or concentration left out as unconfirmed
Method: FIG. 12B: LNCaP cells were grown without androgen for 2 or 4 days in the presence of increasing concentration of Peptide A-8R [SEQ ID NO: 1] (upper left), Peptide B-8R [SEQ ID NO: 2] (upper right), Peptide C-8R [SEQ ID NO: 3] (lower left), or Peptide D-8R [SEQ ID NO: 4] (lower right). The MTT reagent was used to measure cell density.
FIG. 13A: LNCaP cells were grown with (Right) or without (Left) 1 nM androgen ([…]) for 3 or 6 days in the presence of increasing concentration of Peptide A-8R [SEQ ID NO: 1] or vehicle (70% DMSO). The MTT reagent was used to measure cell density.
FIG. 13B: LNCaP cells were grown with (Right) or without (Left) 1 nM androgen (R1881) for 3 or 6 days in the presence of increasing concentration of Peptide C-8R [SEQ ID NO: 3] or vehicle and then cell density was measured.
FIG. 14A: LNCaP cells were grown with (Right) or without (Left) 1 nM R1881 for 3 or 6 days in the presence of increasing concentration of Peptide A or vehicle and then cell density was measured.
FIG. 14B: LNCaP cells were grown with (Right) or without (Left) 1 nM R1881 for 3 or 6 days in the presence of increasing concentration of Peptide A-8R [SEQ ID NO: 1] or vehicle and then cell density was measured.
FIG. 15A: LNCaP cells were grown for 1-8 hrs in the presence of 10 μM Peptide A-8R [SEQ ID NO: 1] or vehicle and then cell density was measured.
FIG. 19C: LNCaP cells were grown with for 12 or 48 hrs in the presence of increasing concentration of Peptide A-8R [SEQ ID NO: 1] (Left) or PeptideA-8R-Biotin [SEQ ID NO: 1] (Right) and then cell density was measured.
Each peptide contained 8 arginines at the C-terminus, a sequence which is known to mediate plasma membrane translocation and cellular internalization.
(§1) To measure how rapid the cytotoxic effect of Peptide A-8R [SEQ ID NO: 1] occurs, LNCaP cells were treated with 10 μM peptide and incubated for 1-8 hrs. […] Using the same conditions, C81 cells were used to study the peptide effect on hormone-refractory prostate cancer cells.

[3] = test system: C81 (androgen-refractory LNCaP) cells; assay: C81 cell density with peptide; type: cell-based; conditions: 10 μM peptide; 1-8 hrs
Method: FIG. 15B: C81 (androgen-refractory LNCaP) cells were grown for 1-8 hrs in the presence of 10 μM Peptide A-8R [SEQ ID NO: 1] or vehicle and then cell density was measured.
as §1

[4] = test system: CWR22-Rv1 (androgen-refractory) cells; assay: CWR22-Rv1 cell density with peptide; type: cell-based; conditions: 10 μM peptide; 1-8 hrs
Method: FIG. 15C: CWR22-Rv1 (androgen-refractory) cells were grown for 1-8 hrs in the presence of 10 μM Peptide A-8R [SEQ ID NO: 1] or vehicle and then cell density was measured.
as §1

[5] = test system: PC-3 prostate cancer cells; assay: PC-3 cell density with peptide; type: cell-based; conditions: even at 100 μM; 3 or 6 days; no endogenous sGCα1
Method: FIG. 17A: PC-3 prostate cancer cells were grown for 3 or 6 days in the presence of increasing concentration of Peptide A-8R [SEQ ID NO: 1] or vehicle and then cell density was measured.

[6] = test system: Cos monkey kidney cancer cells; assay: Cos cell density with peptide; type: cell-based; conditions: even at 100 μM; 2 or 4 days; no endogenous sGCα1
Method: FIG. 17B: Cos monkey kidney cancer cells were grown for 2 or 4 days in the presence of increasing concentration of Peptide A-8R [SEQ ID NO: 1] or vehicle and then cell density was measured.

[7] = test system: LNCaP xenograft tumors; assay: LNCaP xenograft tumors in nude mice, intratumoral injection; type: in vivo
Method: FIG. 20: Peptide A-8R [SEQ ID NO: 1] inhibits the growth of LNCaP prostate xenograft tumors. LNCaP xenograft tumors were grown in nude mice to a size of 200-400 cubic mm and then treated with daily intratumoral injections of either Peptide A-8R [SEQ ID NO: 1] (80 mg/kg of animal) or Vehicle (DMSO) for seven days, after which the tumors were left untreated and allowed to grow for an additional 2-3 weeks. Each point represents the average tumor size of three animals plus/minus the standard deviations. Note that open squares or circles represent no treatment of either Peptide A-8R [SEQ ID NO: 1] or vehicle.
This was analyzed using LNCaP xenograft tumors established in nude mice and direct injection of Peptide A-8R [SEQ ID NO: 1] (FIG. 20).

Ac-TFCKAFPFHIIRRRRRRRR-OH [Peptide A-8R]
Cytotoxicity [1]: Yes
cell number, time course ([2]; LNCaP, 10 μM peptide, 1-8 hrs): steep decline in cell number with one hour
cell death ([2]; LNCaP, peptide treatment, by day 6): 100%
effect on LNCaP cell growth / cytotoxicity (in words) ([2]; increasing concentration of peptide, days, with or without 1 nM R1881): highly cytotoxic; also recorded: induced LNCaP cell death in both the absence and presence of androgens
killing of C81 cells [3]: very effective at killing
killing of CWR22-Rv1 cells [4]: able to kill
effect on PC-3 cells [5]: little to no effect
effect on Cos cells [6]: little to no effect
tumor growth during treatment ([7]; 80 mg/kg daily intratumoral, seven daily injections): strongly inhibited tumor growth and actually caused tumor regression
tumor growth after stopping peptide injection ([7]; additional 2-3 weeks untreated, versus Vehicle): grew significantly more slowly
